2 compounds from US20210008015A1, “HEPATOPROTECTENT PHENYLBUTYRATYRATE DRUG CONJUGATES, AND THEIR COMPOSITIONS PREPARATION AND METHODS OF USE THEREOF” (priority 2019, published 2021) can be followed below.

Each structure is given as a SMILES string. Several values for one entry are separate records, joined by “and”; a condition that tells them apart may be missing. Identical values can stand only once.

Data set [1] has as its system formaldehyde pain model. The data set can be described thus: In vivo comparative pain-relieving model study (formaldehyde pain model). Set-up: species or system Rabbits. Conditions: Test 300 mg/kg orally, reference 150 mg/kg; for Amplitude of rubbing activity, Mean / Amplitude of rubbing activity, Sum: group of 4 rabbits; for Amplitude of rubbing activity, Mean / Amplitude of rubbing activity, Sum / Amplitude of rubbing activity: 60 min post dose of formalin; for No. of rubbings / Amplitude of rubbing activity: individual rabbit; for No. of rubbings: 60 min post dose of formalin (2.5%, 0.1 ml into paw). As for the experimental part:
12 Rabbits (M&F) (formaldehyde pain model 6 hr) were divided into 3 groups 4 rabbits in each group, Group-A Test (Acetaminophen phenylbutyrate) and Group-B reference (Acetaminophen) and Group-C Control (placebo). Group-A 4 rabbits (2M & 2F) were treated with Test 300 mg/kg orally given and 150 mg/kg; reference compound given to Group-B 4 rabbits (2M & 2F) and placebo given to group-C after 15 min each rat was dosed with 2.5% formalin in saline solution 0.1 ml was injected into middle of paw, and monitor for number of licking or scratching's happened with each animal in all groups and compared each group with other in the below table.

For data set [2], the system named is Sprague Dawley (SD) rats. The data set can be described thus: In vivo safety and dose ranging study.
For data set [3], the system named is yeast-induced pyrexia. The data set can be described thus: In vivo comparative antipyretic effect study (Baker's yeast induced pyrexia). Set-up: species or system SD rats. To be noted: for Effect on yeast-induced pyrexia (rise in temperature), 3 hours / Effect on yeast-induced pyrexia (rise in temperature), 6 hours / Effect on yeast-induced pyrexia (rise in temperature), 9 hours: SD rats, Test 300 mg/kg orally, reference 150 mg/kg, Mean ± SD, in °C (unit assumed). As for the experimental part: The in vivo pharmacological study conducted the anti-pyretic activity of acetaminophen Phenylbutyrate (APPB) formulations in SD rats against yeast induced pyrexia 12 rats (M&F) (Baker's yeast induced antipyretic model 24 hr) After measuring basal TR of the animals, they were injected with a pyrogenic dose of Baker's yeast (0.135 g/kg, i.p.). TR changes were recorded every hour up to 4 h. […] Animals were randomly divided into three groups 4 rats in each group, Group-A Test (Acetaminophen phenylbutyrate) and Group-B reference (Acetaminophen) and Group-C Control (placebo). Group-A 4 rats (2M & 2F) were treated with Test 300 mg/kg orally given and 150 mg/kg reference compound given to Group-B 4 rats (2M & 2F) and placebo given to group-C. From the time baker yeast injection body temperature will rise keep monitor every 30-60 min once and record. And after treatment (time after treatment with test, reference and placebo) the body temperature was monitored rectally, for next 6 hr (0, 0.5, 1.0, 1.5, 2, 3, 4, and 6) using digital thermometer which can capture 0.1 F body temp ad recorded. […] Yeast injection in experimental animals caused significant rise in body temperature at the various time intervals as recorded rectally with the help of a tele-thermometer.

`CC(=O)N(C(=O)CCCc1ccccc1)c1ccc(O)cc1` [APPB, N-(4-phenylbutanoyl)-N-(4-hydroxyphenyl)acetanyide]: in data set [1], the “Amplitude of rubbing activity, Mean” value came to 3.62 s; the “Amplitude of rubbing activity, Sum” value is 36.19 s; the No. of rubbings was 4 and 3 and 2 and 1; the “Amplitude of rubbing activity” value is 12.64 s and 11.84 s and 6.69 s and 5.02 s. In data set [2] (500, 1000 and 1500 mg/kg/per day orally for 5 days, M&F SD rats), the “treatment related clinical signs” value was “No treatment related clinical signs were noticed”. Further, in data set [2] (500, 1000 and 1500 mg/kg/per day orally for 5 days, observation for one week after treatment), the survival result was “All group animals were survived”. For the same compound, in data set [2] (500-1500 mg/kg/per day orally for 5 days), the overall safety conclusion result was “safe for prolonged use at higher doses”. For the same compound, the “attenuation of rise in temperature, in words” value (“attenuation of rise” for short) in data set [3] (6 and 9 h after yeast injection, in comparison to placebo control group) is “attenuated the raise in temperature in a highly significant manner”. In data set [3] (3 h after yeast injection), the “attenuation of rise” value is on record as “significantly attenuated the rise in temperature”. In data set [3], the “Effect on yeast-induced pyrexia (rise in temperature), 3 hours” value was determined as 1.21 ± 0.13; the “Effect on yeast-induced pyrexia (rise in temperature), 6 hours” value is reported as 1.48 ± 0.08; the “Effect on yeast-induced pyrexia (rise in temperature), 9 hours” value was found to be 1.83 ± 0.06.

Take `CC(=O)Nc1ccc(O)cc1` [Acetaminophen, N-(4-hydroxyphenyl)acetamide, reference compound]: in data set [1], the “Amplitude of rubbing activity, Mean” value was found to be 2.78 s; the “Amplitude of rubbing activity, Sum” value amounted to 16.7 s; the No. of rubbings is 1 (2×) and 2 (2×); the “Amplitude of rubbing activity” value was 3.1 s and 6.7 s and 2.6 s and 4.3 s. For the same compound, in data set [3], the “Effect on yeast-induced pyrexia (rise in temperature), 3 hours” value is given as 0.83 ± 0.08; the “Effect on yeast-induced pyrexia (rise in temperature), 6 hours” value is on record as 1.31 ± 0.23; the “Effect on yeast-induced pyrexia (rise in temperature), 9 hours” value was 1.91 ± 0.14. Besides, the “attenuation of rise” value in data set [3] (all time intervals) is listed as “attenuated the rise in temperature to a significant extent at all time intervals”.
